Read-outs that look alike come from different tables or passages of the source. Square brackets hold non-standard residues; d marks the D form. Peptide text beside a SMILES is read from it. Phe(4-I) = N[C@@H](Cc1ccc(I)cc1)C(=O)O; dPhe(4-I) = N[C@H](Cc1ccc(I)cc1)C(=O)O; 2Nal = N[C@@H](Cc1ccc2ccccc2c1)C(=O)O; d2Nal = N[C@H](Cc1ccc2ccccc2c1)C(=O)O
Tests used:
mMC1R = mMC1R (Mus musculus, UniProt Q01727); test: AlphaScreen cAMP agonist assay, HEK293 cells stably expressing mMC1R; format: cell-based; settings: for mMC1R agonist activity in words: full agonist = 90% of maximal NDP-MSH signal; for mMC1R partial agonist percentage of receptor activation relative to NDP-MSH: partial agonists
mMC3R [1] = target: T1, mMC3R (Mus musculus, UniProt P33033); test: AlphaScreen cAMP agonist assay, HEK293 cells stably expressing mMC3R; format: cell-based; settings: at 100 μM
mMC5R = mMC5R (Mus musculus, UniProt P41149); test: AlphaScreen cAMP agonist assay, HEK293 cells stably expressing mMC5R; format: cell-based; settings: for mMC5R percent maximal stimulatory response (compared to NDP-MSH): at 100 μM
mMC4R [2] = target: T2, mMC4R (Mus musculus, UniProt P56450); settings: mMC4R versus mMC3R antagonist potency
MC5R = settings: cited from earlier work
MC1R = settings: at 2 μM; cited from earlier work
MC3R = settings: at 2 μM; cited from earlier work
MC4R = settings: at 2 μM; cited from earlier work
mMC3R [3] = target: T1, mMC3R; settings: miniAGRP(87–120), β-galactosidase reporter gene assay; cited from earlier work
mMC4R [4] = target: T2, mMC4R; settings: miniAGRP(87–120), β-galactosidase reporter gene assay; cited from earlier work
[5] = Solubility in solvents compatible with RP-HPLC
[6] = tested on: mouse B16-F10 melanoma cells; settings: 30 and 100 μM, 100 nM α-MSH, 72 h; cited from earlier work
[7] = compared to a control formulation lacking glycinamide; cited from earlier work
mMC4R [8] = target: T2, mMC4R; settings: cited from earlier work
mMC3R [9] = target: T1, mMC3R; settings: earlier report; cited from earlier work
mMC4R [10] = target: T2, mMC4R; settings: earlier report; cited from earlier work
hMC4R = settings: read-out: hMC4R IC50; tripeptide SAR study; cited from earlier work
human (h)MC4R = settings: cited from earlier work
hMC3R = settings: cited from earlier work
hMC1R = settings: cited from earlier work
hMC5R = settings: cited from earlier work

mMC1R, sequence (Q01727 whole entry): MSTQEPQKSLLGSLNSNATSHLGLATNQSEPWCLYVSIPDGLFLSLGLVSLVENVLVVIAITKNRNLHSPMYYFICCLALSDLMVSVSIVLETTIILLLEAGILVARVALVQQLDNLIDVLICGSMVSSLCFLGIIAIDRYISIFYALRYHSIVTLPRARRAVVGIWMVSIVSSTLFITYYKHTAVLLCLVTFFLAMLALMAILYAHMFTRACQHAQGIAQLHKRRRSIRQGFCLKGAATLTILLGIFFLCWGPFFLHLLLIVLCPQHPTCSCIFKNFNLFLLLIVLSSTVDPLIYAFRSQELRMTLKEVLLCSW
T2 sequence (P56450 whole entry): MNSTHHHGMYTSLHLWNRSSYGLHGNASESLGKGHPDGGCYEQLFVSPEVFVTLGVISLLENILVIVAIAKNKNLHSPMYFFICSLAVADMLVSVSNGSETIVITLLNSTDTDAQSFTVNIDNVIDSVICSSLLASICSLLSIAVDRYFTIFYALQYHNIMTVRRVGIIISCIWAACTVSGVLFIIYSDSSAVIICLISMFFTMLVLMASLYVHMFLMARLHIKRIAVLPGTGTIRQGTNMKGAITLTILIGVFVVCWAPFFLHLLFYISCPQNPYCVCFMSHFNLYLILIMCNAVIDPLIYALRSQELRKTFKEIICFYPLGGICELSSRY
T1 sequence (P33033 whole entry): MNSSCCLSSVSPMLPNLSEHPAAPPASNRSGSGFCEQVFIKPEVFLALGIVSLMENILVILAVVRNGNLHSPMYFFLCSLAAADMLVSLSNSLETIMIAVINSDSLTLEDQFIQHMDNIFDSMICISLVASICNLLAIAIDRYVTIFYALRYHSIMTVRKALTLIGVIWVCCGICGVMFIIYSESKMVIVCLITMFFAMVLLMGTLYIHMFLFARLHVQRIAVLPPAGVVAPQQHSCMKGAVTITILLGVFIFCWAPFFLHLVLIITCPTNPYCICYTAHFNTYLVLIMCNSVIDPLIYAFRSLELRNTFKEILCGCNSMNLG
mMC5R, sequence (P41149 whole entry): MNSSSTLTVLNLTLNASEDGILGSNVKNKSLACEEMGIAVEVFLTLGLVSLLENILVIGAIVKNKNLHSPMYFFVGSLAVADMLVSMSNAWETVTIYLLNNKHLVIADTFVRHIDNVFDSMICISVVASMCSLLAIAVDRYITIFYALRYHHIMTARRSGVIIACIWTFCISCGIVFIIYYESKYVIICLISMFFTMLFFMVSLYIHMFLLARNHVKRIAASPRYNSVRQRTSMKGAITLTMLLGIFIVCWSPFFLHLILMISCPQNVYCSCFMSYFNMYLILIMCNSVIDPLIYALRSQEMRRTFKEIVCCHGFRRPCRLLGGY

Question: Which results are given for `CC(=O)N[C@H](Cc1ccc(I)cc1)C(=O)N[C@@H](CCCNC(=N)N)C(=O)N[C@H](Cc1ccc(I)cc1)C(=O)N[C@H](Cc1ccc2ccccc2c1)C(N)=O` [Peptide 44, Ac-DPhe(pI)-Arg-DPhe(pI)-DNal(2’)-NH2] (Ac-[dPhe(4-I)]R[dPhe(4-I)][d2Nal]-NH2)?
Answer: mMC1R agonist activity in words (mMC1R): full agonist activity; mMC3R percent maximal stimulatory response (compared to NDP-MSH) (mMC3R [1]): 40% @100μM; mMC5R percent maximal stimulatory response (compared to NDP-MSH) (mMC5R): 65% @100μM

Question: With `CC(=O)N[C@@H](Cc1ccc(I)cc1)C(=O)N[C@@H](Cc1ccc2ccccc2c1)C(=O)N[C@@H](Cc1ccc(I)cc1)C(=O)N[C@@H](CCCNC(=N)N)C(N)=O` [Peptide 49, Ac-Phe(pI)-Nal(2’)-Phe(pI)-Arg-NH2] (Ac-[Phe(4-I)][2Nal][Phe(4-I)]R-NH2) as the compound, how does the “mMC1R agonist activity in words” value (mMC1R) read?
Answer: partially stimulate

Question: And the “mMC5R EC50” value (mMC5R; agonist, >100,000 = no agonist activity up to 100 μM)?
Answer: did not possess agonist activity

Question: Which results are given for `CC(=O)N[C@H](Cc1ccc2ccccc2c1)C(=O)N[C@@H](CCCNC(=N)N)C(=O)N[C@H](Cc1ccc2ccccc2c1)C(=O)N[C@@H](CCCNC(=N)N)C(N)=O` [Peptide 15, Ac-DNal(2’)-Arg-DNal(2’)-Arg-NH2] (Ac-[d2Nal]R[d2Nal]R-NH2)?
Answer: mMC1R partial agonist percentage of receptor activation relative to NDP-MSH (mMC1R): 60 % NDP; selectivity for the mMC4R over the mMC3R (antagonist) (mMC4R [2]): more than 150 fold

Question: For “Ac-Ser-Tyr-Ser-Nle-Glu-Oic-DBip-Pip-Trp-Gly-Lys-Pro-Val-NH2 (WGKPV; N-terminal Ac-Ser-Tyr-Ser-Nle-Glu-Oic-DBip-Pip; C-terminal amide; printed: Trp-Gly-Lys-Pro-Val-)”, which “MC5R agonist potency in words” value (MC5R) is on record?
Answer: sub-nanomolar MC5R agonist

Question: Which EC50 (MC5R; read-out: concentration activating the MC5R) does the source give for Ac-Nle-c[Asp-Oic-DBip-Pip-Trp-Lys]-NH2 here?
Answer: 0.99 nM

Question: And the MC1R activation (MC1R)?
Answer: up to 40%

Question: And the MC3R activation (MC3R)?
Answer: up to 40%

Question: And the MC4R activation (MC4R)?
Answer: up to 40%

Question: For `CC(=O)N[C@H](Cc1ccc2ccccc2c1)C(=O)N[C@@H](CCCNC(=N)N)C(=O)N[C@@H](Cc1ccc2ccccc2c1)C(=O)N[C@H](Cc1ccc2ccccc2c1)C(N)=O` [Peptide 23, Ac-DNal(2’)-Arg-Nal(2’)-DNal(2’)-NH2] (Ac-[d2Nal]R[2Nal][d2Nal]-NH2), which “mMC3R percent maximal stimulatory response (compared to NDP-MSH)” value (mMC3R [1]) is on record?
Answer: 30% @100μM

Question: What about the “mMC5R percent maximal stimulatory response (compared to NDP-MSH)” value (mMC5R) of the same compound?
Answer: 25% @100μM

Question: For `CC(=O)N[C@H](Cc1ccc2ccccc2c1)C(=O)N[C@@H](CCCNC(=N)N)C(=O)N[C@@H](Cc1c[nH]c2ccccc12)C(=O)N[C@H](CCCCN)C(N)=O` [Peptide 16, Ac-DNal(2’)-Arg-Trp-DLys-NH2] (Ac-[d2Nal]RW[dK]-NH2), which “selectivity for the mMC4R over the mMC3R (antagonist)” value (mMC4R [2]) is on record?
Answer: more than 150 fold

Question: Which “mMC3R pA2” value (mMC3R [3]) does the source give for “miniAGRP(87–120): truncated agouti-related protein melanocortin receptor antagonist (CVRLHESCLGQQVPCCDPCATCYCRFFNAFCYCR; UniProt O00253 87-120, looked up, fragment)” here?
Answer: 8.1±0.1

Question: And the “mMC4R pA2” value (mMC4R [4])?
Answer: 8.5±0.1

Question: With `CC(=O)N[C@H](Cc1ccc2ccccc2c1)C(=O)N[C@H](Cc1ccc2ccccc2c1)C(=O)N[C@H](Cc1ccc2ccccc2c1)C(=O)N[C@H](Cc1ccc2ccccc2c1)C(N)=O` [Ac-DNal(2’)-DNal(2’)-DNal(2’)-DNal(2’)-NH2] (Ac-[d2Nal][d2Nal][d2Nal][d2Nal]-NH2) as the compound, how does the “solubility in solvents compatible with RP-HPLC” value [5] read?
Answer: insoluble

Question: With Ac-Oic-DBip-Pip-Trp-NH2 as the compound, how does the EC50 (MC5R; read-out: MC5R agonist potency) read?
Answer: 1200 nM

Question: Which “effect on α-MSH-stimulated melanin production” value [6] does the source give for `NCC(N)=O` [glycinamide] here?
Answer: possessed anti-melanogenic activity

Question: What about the “effect on facial skin pigmentation” value [7] of the same compound?
Answer: decreased melanin index and skin pigmentation

Question: Which “mMC1R partial agonist percentage of receptor activation relative to NDP-MSH” value (mMC1R) does the source give for `CC(=O)N[C@H](Cc1ccc2ccccc2c1)C(=O)N[C@@H](CCCNC(=N)N)C(=O)N[C@H](Cc1ccc2ccccc2c1)C(=O)N[C@H](Cc1ccc2ccccc2c1)C(N)=O` [Peptide 14, Ac-DNal(2’)-Arg-DNal(2’)-DNal(2’)-NH2] (Ac-[d2Nal]R[d2Nal][d2Nal]-NH2) here?
Answer: 85 % NDP

Question: And the “mMC3R percent maximal stimulatory response (compared to NDP-MSH)” value (mMC3R [1])?
Answer: 50% @100μM

Question: What about the “mMC5R percent maximal stimulatory response (compared to NDP-MSH)” value (mMC5R) of the same compound?
Answer: 20% @100μM

Question: For `CC(=O)N[C@H](Cc1ccc(I)cc1)C(=O)N[C@@H](CCCNC(=N)N)C(=O)N[C@H](Cc1ccc2ccccc2c1)C(=O)N[C@H](Cc1ccc2ccccc2c1)C(N)=O` [Peptide 38, Ac-DPhe(pI)-Arg-DNal(2’)-DNal(2’)-NH2] (Ac-[dPhe(4-I)]R[d2Nal][d2Nal]-NH2), which “mMC3R percent maximal stimulatory response (compared to NDP-MSH)” value (mMC3R [1]) is on record?
Answer: 45% @100μM

Question: What about the “mMC5R percent maximal stimulatory response (compared to NDP-MSH)” value (mMC5R) of the same compound?
Answer: 20% @100μM

Question: Which “effect on α-MSH-stimulated melanin production” value [6] does the source give for H-RFWG-NH2 here?
Answer: inhibited α-MSH-stimulated melanin production

Question: Which results are given for `CC(=O)N[C@H](Cc1ccc2ccccc2c1)C(=O)N[C@@H](CCCNC(=N)N)C(=O)N[C@H](Cc1ccc2ccccc2c1)C(=O)N[C@H](CCCCN)C(N)=O` [Peptide 13, Ac-DNal(2’)-Arg-DNal(2’)-DLys-NH2] (Ac-[d2Nal]R[d2Nal][dK]-NH2)?
Answer: mMC1R partial agonist percentage of receptor activation relative to NDP-MSH (mMC1R): 30 % NDP; selectivity for the mMC4R over the mMC3R (antagonist) (mMC4R [2]): more than 150 fold

Question: Which results are given for `CC(=O)N[C@H](Cc1ccc2ccccc2c1)C(=O)N[C@@H](CCCNC(=N)N)C(=O)N[C@H](Cc1ccc(I)cc1)C(=O)N[C@H](Cc1ccc2ccccc2c1)C(N)=O` [Peptide 20, Ac-DNal(2’)-Arg-DPhe(pI)-DNal(2’)-NH2] (Ac-[d2Nal]R[dPhe(4-I)][d2Nal]-NH2)?
Answer: mMC1R agonist activity in words (mMC1R): full agonist activity; mMC4R partial agonist efficacy, % of the maximal NDP-MSH signal, previously reported (mMC4R [8]; earlier report): 37%; mMC3R pA2, previously reported (mMC3R [9]): 5.6; mMC4R pA2, previously reported (mMC4R [10]): 5.9

Question: Which “effect on α-MSH-stimulated melanin production” value [6] does the source give for H-RLWG-NH2 here?
Answer: inhibited α-MSH-stimulated melanin production

Question: Which IC50 (hMC4R) does the source give for Ac-DNal(2’)-Arg-DNal(2’) here?
Answer: 36.5 nM

Question: Which results are given for Ac-DNal(2’)-Arg-Nal(2’) [MCL0020]?
Answer: binding affinity at hMC4R (human (h)MC4R): 11.63 nM; binding affinity at hMC3R (hMC3R): 1115 nM; concentration up to which radiolabeled NDP-MSH was not displaced at hMC1R (hMC1R): > 10 µM; IC50 (hMC4R): 15.4 nM

Question: Which “mMC4R agonist potency in words” value (mMC4R [8]) does the source give for “Ac-His-DPhe-Arg-Trp-NH2 [reference compound]” here?
Answer: nanomolar agonist potency

Question: For “Ac-Nle-c[Asp-Pro-DNal(2’)-Arg-Trp-Lys]-NH2 [PG901]”, which “hMC5R agonist potency in words” value (hMC5R) is on record?
Answer: sub-nanomolar agonist potency

Source: article PMC8533642 (Journal of medicinal chemistry, 2021)
